# According to ChEMBL document CHEMBL1147983:
# What was measured:
# [1] = target: Epidermal growth factor receptor (Homo sapiens, UniProt P00533); test: Inhibition of EGFR
# Aurora kinase A = target: T1, Aurora kinase A (Homo sapiens, UniProt O14965)
# T1 sequence (O14965 whole entry): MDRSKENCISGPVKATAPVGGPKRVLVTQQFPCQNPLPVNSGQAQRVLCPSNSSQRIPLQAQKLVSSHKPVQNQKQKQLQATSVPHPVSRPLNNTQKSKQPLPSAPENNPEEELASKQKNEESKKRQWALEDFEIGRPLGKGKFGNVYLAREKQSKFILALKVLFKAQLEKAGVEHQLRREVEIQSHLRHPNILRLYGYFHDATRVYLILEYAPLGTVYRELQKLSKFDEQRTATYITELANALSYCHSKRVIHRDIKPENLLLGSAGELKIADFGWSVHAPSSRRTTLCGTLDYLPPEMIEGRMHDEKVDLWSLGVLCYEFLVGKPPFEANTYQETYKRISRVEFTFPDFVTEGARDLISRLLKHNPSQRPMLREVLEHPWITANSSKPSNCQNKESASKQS
# Epidermal growth factor receptor, sequence (P00533 whole entry): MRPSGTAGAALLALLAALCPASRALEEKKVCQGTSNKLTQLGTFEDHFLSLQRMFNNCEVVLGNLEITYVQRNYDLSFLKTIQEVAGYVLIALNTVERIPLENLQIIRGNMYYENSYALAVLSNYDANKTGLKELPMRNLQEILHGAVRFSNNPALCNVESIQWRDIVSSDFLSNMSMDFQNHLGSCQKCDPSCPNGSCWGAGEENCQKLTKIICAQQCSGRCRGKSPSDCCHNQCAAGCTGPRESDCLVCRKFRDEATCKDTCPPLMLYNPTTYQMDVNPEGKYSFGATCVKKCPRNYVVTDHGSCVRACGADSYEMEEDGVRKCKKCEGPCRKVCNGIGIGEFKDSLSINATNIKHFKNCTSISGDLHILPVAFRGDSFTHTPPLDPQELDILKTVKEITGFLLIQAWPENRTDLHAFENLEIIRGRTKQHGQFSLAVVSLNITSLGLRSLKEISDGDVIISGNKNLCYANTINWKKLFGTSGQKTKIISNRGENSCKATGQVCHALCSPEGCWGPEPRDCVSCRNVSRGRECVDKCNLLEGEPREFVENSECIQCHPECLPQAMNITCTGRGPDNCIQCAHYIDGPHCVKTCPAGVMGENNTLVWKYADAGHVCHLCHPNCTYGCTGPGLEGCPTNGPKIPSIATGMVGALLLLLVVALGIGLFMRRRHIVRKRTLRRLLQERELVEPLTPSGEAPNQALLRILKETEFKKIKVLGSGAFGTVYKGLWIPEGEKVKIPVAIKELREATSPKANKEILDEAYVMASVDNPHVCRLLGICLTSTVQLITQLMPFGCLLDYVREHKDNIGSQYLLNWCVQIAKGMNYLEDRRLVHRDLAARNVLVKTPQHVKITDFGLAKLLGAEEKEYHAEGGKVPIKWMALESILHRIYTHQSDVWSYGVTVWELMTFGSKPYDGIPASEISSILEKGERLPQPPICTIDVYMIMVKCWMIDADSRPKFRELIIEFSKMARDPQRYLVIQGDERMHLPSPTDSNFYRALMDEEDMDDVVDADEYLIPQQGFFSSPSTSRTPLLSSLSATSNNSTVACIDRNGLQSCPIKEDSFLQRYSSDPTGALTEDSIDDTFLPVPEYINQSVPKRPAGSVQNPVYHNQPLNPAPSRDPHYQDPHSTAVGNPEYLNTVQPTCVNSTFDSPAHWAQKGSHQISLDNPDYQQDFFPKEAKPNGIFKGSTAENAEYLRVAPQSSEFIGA
IC50 [1],IC50 (Aurora kinase A),SMILES
> 10 µM,,O=C(Nc1cccc(Nc2nccc(Nc3cccc(C(F)(F)F)c3)n2)c1)C1CC1 [ANILINOPYRIMIDINE1]
0.021 µM,> 10 µM,O=C(Nc1cccc(Nc2cc(Nc3cccc(C(F)(F)F)c3)ncn2)c1)C1CC1
> 10 µM,0.931 µM,O=C(Nc1cccc(Nc2ccnc(Nc3cccc(C(F)(F)F)c3)n2)c1)C1CC1
